Tests used:
[1] = biological target: T1, Human neuropeptide Y (NPY-Y1) (Homo sapiens, UniProt P25929); test: Radioligand binding, human neuropeptide Y NPY-Y1 membranes, FlashPlate, [125I]-PYY; details: compound at 10 μM; [125I]-PYY, human NPY-Y1 membranes
T1 construct: purchased Perkin Elmer Biosignal
T1 sequence (P25929 1-384): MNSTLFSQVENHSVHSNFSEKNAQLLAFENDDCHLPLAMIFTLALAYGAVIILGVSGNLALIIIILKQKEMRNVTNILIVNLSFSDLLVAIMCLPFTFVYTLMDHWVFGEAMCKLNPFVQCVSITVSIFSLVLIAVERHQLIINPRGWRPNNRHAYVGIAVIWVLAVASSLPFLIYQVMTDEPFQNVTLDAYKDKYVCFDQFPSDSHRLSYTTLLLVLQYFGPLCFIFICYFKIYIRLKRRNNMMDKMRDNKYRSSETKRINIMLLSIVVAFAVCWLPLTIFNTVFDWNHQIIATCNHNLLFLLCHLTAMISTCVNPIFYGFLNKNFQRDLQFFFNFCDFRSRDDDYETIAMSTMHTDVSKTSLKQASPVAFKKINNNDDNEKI
Summary of the method: (§1)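 Cloned human receptor membranes were coated onto FlashPlate wells and incubated with radioligand and compound (added from a 0.5 mM DMSO daughter plate) for 1 hour at room temperature in the dark. Scintillation counting gave percent inhibition, with DMSO defining total and reference ligand defining non-specific binding.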

[2] = biological target: T2, Human melanin-concentrating hormone (MCH1) (Homo sapiens, UniProt Q99705); test: Radioligand binding, human melanin-concentrating hormone MCH1 membranes, FlashPlate, [125I]-S36057; details: compound at 10 μM, [125I]-S36057, human MCH1 membranes
T2 construct: purchased Perkin Elmer Biosignal
T2 sequence (Q99705 whole entry): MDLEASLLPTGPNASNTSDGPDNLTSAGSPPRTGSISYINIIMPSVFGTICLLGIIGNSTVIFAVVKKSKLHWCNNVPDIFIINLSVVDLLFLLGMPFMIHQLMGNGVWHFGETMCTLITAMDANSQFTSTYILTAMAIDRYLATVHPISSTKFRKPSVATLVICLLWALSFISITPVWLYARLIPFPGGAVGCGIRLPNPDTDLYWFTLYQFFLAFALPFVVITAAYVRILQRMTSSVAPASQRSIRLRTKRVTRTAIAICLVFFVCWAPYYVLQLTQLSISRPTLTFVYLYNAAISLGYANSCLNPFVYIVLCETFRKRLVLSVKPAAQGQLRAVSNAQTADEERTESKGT
Summary of the method: as §1

Human neurokinin (NK1) = biological target: T3, Human neurokinin (NK1) (Homo sapiens, UniProt P25103); test: Radioligand binding, human neurokinin NK1 membranes, filtration, [125I]-Substance P; details: compound at 10 μM; [125I]-Substance P, human NK1 membranes
T3 construct: purchased Perkin Elmer Biosignal
T3 sequence (P25103 whole entry): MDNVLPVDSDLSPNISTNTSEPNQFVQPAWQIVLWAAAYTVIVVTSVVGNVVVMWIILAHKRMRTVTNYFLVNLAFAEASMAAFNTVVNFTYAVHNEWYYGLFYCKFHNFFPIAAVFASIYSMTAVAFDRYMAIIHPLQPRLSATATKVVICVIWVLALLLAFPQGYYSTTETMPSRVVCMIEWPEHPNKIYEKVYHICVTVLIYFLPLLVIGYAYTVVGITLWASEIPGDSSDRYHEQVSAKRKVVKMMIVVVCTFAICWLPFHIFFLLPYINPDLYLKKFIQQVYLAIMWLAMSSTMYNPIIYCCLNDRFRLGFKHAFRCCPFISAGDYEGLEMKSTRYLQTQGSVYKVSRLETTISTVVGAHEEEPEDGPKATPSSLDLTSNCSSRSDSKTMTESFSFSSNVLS
Summary of the method: (§2)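 Membranes from cloned human receptors were incubated with compound and radioligand for 1 hour at room temperature. Bound ligand was collected on 0.3% PEI-soaked filters, washed with cold 50 mM Tris-HCl pH 7.4, and counted by scintillation. Percent inhibition was computed against DMSO totals and reference-ligand nonspecific wells.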

Human Melanocortin (MC3) = biological target: T4, Human Melanocortin (MC3) (Homo sapiens, UniProt P41968); test: Radioligand binding, human melanocortin MC3 membranes, FlashPlate, [125I]-NDP-αMSH; details: compound at 10 μM, [125I]-NDP-αMSH, human MC3 membranes
T4 construct: purchased Perkin Elmer Biosignal
T4 sequence (P41968 whole entry): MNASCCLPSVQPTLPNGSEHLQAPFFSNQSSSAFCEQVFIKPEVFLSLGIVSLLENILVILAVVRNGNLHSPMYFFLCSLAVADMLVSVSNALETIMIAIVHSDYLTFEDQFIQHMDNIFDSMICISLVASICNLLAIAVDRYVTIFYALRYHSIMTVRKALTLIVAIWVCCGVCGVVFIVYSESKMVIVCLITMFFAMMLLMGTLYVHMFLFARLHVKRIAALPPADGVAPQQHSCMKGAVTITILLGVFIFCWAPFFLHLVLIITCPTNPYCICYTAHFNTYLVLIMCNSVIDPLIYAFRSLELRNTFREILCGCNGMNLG
Summary of the method: as §1

Mouse urotensin (mUR2) = biological target: T5, Mouse urotensin (mUR2) (Mus musculus, UniProt Q8VIH9); test: Radioligand binding, mouse urotensin mUR2 membranes, FlashPlate, [125I]-Urotensin II; details: compound at 10 μM; [125I]-Urotensin II, mouse mUR2 membranes
T5 construct: purchased Perkin Elmer Biosignal
T5 sequence (Q8VIH9 1-385): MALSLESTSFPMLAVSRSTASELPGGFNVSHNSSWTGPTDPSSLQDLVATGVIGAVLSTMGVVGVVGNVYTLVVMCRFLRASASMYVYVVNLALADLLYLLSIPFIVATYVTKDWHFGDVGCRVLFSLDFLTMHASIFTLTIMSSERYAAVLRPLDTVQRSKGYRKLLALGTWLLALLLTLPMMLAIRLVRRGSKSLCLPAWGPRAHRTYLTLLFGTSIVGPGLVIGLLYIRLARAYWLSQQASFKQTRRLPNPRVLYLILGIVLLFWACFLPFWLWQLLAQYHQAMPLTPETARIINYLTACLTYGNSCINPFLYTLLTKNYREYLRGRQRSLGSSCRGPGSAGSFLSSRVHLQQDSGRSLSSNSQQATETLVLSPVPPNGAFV
Summary of the method: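 Cloned mouse urotensin (mUR2) receptor membranes from Perkin Elmer Biosignal were immobilized in FlashPlate microplates using a proprietary coating. Each well got 19.5 μl buffer, then 0.5 μl of DMSO, reference ligand, or compound. Adding 5 μl of [125I]-Urotensin II, diluted to 5× final concentration in binding buffer, started binding. Plates were sealed with TopSeal-A and incubated 1 hour at room temperature in the dark. Wells were counted for 30 seconds each on a TopCount after a 60-second delay, and percentage inhibition was calculated.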

Human Melanocortin (MC4) = biological target: T6, Human Melanocortin (MC4) (Homo sapiens, UniProt P32245); test: Radioligand binding, human melanocortin MC4 membranes, FlashPlate, [125I]-NDP-αMSH; details: compound at 10 μM, [125I]-NDP-αMSH, human MC4 membranes
T6 construct: purchased Perkin Elmer Biosignal
T6 sequence (P32245 whole entry): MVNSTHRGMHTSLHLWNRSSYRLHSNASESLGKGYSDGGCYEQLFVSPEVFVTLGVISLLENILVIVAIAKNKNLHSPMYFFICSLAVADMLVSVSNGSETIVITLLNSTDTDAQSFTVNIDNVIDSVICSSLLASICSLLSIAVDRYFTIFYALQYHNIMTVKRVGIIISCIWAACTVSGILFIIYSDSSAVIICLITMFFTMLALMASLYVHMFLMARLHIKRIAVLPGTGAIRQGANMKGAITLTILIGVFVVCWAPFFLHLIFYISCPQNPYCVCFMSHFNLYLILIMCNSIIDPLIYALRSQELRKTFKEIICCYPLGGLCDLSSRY
Summary of the method: as §1

Human κ-Opioid (KOP) = biological target: T7, Human κ-Opioid (KOP) (Homo sapiens, UniProt P41145); test: Radioligand binding, human κ-opioid (KOP) membranes, filtration, [3H]-Diprenorphine; details: compound at 10 μM; [3H]-Diprenorphine, human KOP membranes
T7 construct: purchased Perkin Elmer Biosignal
T7 sequence (P41145 whole entry): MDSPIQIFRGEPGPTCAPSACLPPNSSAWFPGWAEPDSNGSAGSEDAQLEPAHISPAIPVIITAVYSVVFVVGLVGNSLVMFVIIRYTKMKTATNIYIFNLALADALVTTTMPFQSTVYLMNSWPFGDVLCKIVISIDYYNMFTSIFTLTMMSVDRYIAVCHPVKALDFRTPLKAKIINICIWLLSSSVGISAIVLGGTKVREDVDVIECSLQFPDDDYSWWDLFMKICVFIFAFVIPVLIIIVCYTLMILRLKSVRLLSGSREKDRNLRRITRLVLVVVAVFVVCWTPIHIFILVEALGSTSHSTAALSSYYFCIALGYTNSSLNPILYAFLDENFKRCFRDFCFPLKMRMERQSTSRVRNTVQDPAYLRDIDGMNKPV
Summary of the method: as §2

Human opioid (ORL1) = biological target: T8, Human opioid (ORL1) (Homo sapiens, UniProt P41146); test: Radioligand binding, human opioid ORL1 membranes, FlashPlate, [125I]-Nociceptin; details: compound at 10 μM, [125I]-Nociceptin, human ORL1 membranes
T8 construct: purchased Perkin Elmer Biosignal
T8 sequence (P41146 whole entry): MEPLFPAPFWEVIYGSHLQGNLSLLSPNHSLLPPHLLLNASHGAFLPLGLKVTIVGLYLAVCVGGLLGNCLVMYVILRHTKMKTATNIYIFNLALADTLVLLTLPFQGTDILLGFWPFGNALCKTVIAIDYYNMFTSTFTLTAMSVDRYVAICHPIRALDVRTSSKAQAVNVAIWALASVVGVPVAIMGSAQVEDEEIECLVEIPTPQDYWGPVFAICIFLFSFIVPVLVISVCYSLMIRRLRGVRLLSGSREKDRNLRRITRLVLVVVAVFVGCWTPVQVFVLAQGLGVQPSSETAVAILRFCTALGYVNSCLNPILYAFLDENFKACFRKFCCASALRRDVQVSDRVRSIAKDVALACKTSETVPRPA
Summary of the method: as §1

Human δ-opioid (DOP) = biological target: T9, Human δ-opioid (DOP) (Homo sapiens, UniProt P41143); test: Radioligand binding, human δ-opioid (DOP) membranes, FlashPlate, [3H]-Bremazocine; details: compound at 10 μM; [3H]-Bremazocine, human DOP membranes
T9 construct: purchased Perkin Elmer Biosignal
T9 sequence (P41143 whole entry): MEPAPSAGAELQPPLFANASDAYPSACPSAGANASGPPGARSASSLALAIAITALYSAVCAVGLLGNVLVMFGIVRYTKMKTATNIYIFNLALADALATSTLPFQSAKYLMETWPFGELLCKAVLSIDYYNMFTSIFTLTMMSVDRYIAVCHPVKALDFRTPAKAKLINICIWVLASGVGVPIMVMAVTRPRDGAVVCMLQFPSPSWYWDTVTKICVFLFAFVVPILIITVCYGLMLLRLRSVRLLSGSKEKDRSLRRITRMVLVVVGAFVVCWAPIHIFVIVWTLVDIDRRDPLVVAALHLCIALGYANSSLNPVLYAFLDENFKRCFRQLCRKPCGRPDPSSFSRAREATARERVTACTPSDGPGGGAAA
Summary of the method: as §1

Human μ-opioid (MOP) = biological target: T10, Human μ-opioid (MOP) (Homo sapiens, UniProt P35372); test: Radioligand binding, human μ-opioid (MOP) membranes, FlashPlate, [3H]-Naloxone; details: compound at 10 μM, [3H]-Naloxone, human MOP membranes
T10 construct: purchased Perkin Elmer Biosignal
T10 sequence (P35372 whole entry): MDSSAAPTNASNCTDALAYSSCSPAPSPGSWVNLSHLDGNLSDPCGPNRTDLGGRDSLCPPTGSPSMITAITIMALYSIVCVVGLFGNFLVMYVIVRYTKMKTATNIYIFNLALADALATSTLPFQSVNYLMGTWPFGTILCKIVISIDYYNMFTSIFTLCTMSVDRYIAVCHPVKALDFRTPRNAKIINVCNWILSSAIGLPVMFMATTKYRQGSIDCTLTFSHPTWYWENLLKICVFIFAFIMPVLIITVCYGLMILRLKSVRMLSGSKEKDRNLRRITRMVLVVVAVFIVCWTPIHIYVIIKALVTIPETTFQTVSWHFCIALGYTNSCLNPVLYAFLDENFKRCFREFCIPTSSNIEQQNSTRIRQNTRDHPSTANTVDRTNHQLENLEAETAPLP
Summary of the method: as §1

Human melanocortin (MC5) = biological target: T11, Human melanocortin (MC5) (Homo sapiens, UniProt P33032); test: Radioligand binding, human melanocortin MC5 membranes, FlashPlate, [125I]-NDP-αMSH; details: compound at 10 μM; [125I]-NDP-αMSH, human MC5 membranes
T11 construct: purchased Perkin Elmer Biosignal
T11 sequence (P33032 whole entry): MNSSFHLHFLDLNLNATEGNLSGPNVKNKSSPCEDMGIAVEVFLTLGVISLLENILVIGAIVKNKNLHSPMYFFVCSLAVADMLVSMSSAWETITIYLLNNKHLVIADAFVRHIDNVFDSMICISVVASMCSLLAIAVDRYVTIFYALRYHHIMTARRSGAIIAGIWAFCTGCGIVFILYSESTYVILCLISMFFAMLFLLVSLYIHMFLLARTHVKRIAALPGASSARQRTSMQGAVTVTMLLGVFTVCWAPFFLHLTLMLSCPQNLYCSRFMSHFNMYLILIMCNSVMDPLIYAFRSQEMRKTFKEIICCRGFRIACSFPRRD
Summary of the method: as §1

SMILES | A9: inhibition of radioligand binding [1] | A6: inhibition of radioligand binding ([2]; 10 µM) | A8: inhibition of radioligand binding (Human neurokinin (NK1)) | A3: inhibition of radioligand binding (Human Melanocortin (MC3)) | A11: inhibition of radioligand binding (Mouse urotensin (mUR2)) | A4: inhibition of radioligand binding (Human Melanocortin (MC4)) | A2: inhibition of radioligand binding (Human κ-Opioid (KOP)) | A10: inhibition of radioligand binding (Human opioid (ORL1); 10 µM) | A1: inhibition of radioligand binding (Human δ-opioid (DOP)) | A7: inhibition of radioligand binding (Human μ-opioid (MOP); 10 µM) | A5: inhibition of radioligand binding (Human melanocortin (MC5)) | A6: inhibition of radioligand binding [2] | A3: inhibition of radioligand binding (Human Melanocortin (MC3); 10 µM) | A4: inhibition of radioligand binding (Human Melanocortin (MC4); 10 µM) | A10: inhibition of radioligand binding (Human opioid (ORL1)) | A7: inhibition of radioligand binding (Human μ-opioid (MOP))
NCCCC(=O)NC1C(OCc2ccc3ccccc3c2)OC(COCc2ccc(Cl)cc2)C(O)C1OCc1ccc(Cl)cc1 (single isomer, unassigned) [compound 458] | − (“−” indicates less than 50% inhibition at 10 μM) | + (“+” indicates greater than 50% inhibition at 10 μM) | + (“+” indicates greater than 50% inhibition at 10 μM) | + (“+” indicates greater than 50% inhibition at 10 μM) | − (“−” indicates less than 50% inhibition at 10 μM) | + (“+” indicates greater than 50% inhibition at 10 μM) | − (“−” indicates less than 50% inhibition at 10 μM) | + (“+” indicates greater than 50% inhibition at 10 μM) | − (“−” indicates less than 50% inhibition at 10 μM) | + (“+” indicates greater than 50% inhibition at 10 μM) | + (“+” indicates greater than 50% inhibition at 10 μM) | – | – | – | – | –
NCCC(=O)N[C@H]1C(OCc2ccc3ccccc3c2)O[C@H](COCc2ccc(Cl)cc2)[C@@H](O)[C@@H]1OCc1ccc(Cl)cc1 (stereo partly drawn) [compound 440] | − (“−” indicates less than 50% inhibition at 10 μM) | – | + (“+” indicates greater than 50% inhibition at 10 μM) | – | − (“−” indicates less than 50% inhibition at 10 μM) | – | − (“−” indicates less than 50% inhibition at 10 μM) | – | − (“−” indicates less than 50% inhibition at 10 μM) | – | + (“+” indicates greater than 50% inhibition at 10 μM) | + (“+” indicates greater than 50% inhibition at 10 μM) | − (“−” indicates less than 50% inhibition at 10 μM) | − (“−” indicates less than 50% inhibition at 10 μM) | − (“−” indicates less than 50% inhibition at 10 μM) | − (“−” indicates less than 50% inhibition at 10 μM)
N=C(N)NCC(=O)NC1C(OCc2ccc(-c3ccccc3)cc2)OC(COCc2ccc(Cl)cc2)C(O)C1OCc1ccc(Cl)cc1 (stereo not drawn) [compound 401] | − (“−” indicates less than 50% inhibition at 10 μM) | – | + (“+” indicates greater than 50% inhibition at 10 μM) | + (“+” indicates greater than 50% inhibition at 10 μM) | − (“−” indicates less than 50% inhibition at 10 μM) | + (“+” indicates greater than 50% inhibition at 10 μM) | − (“−” indicates less than 50% inhibition at 10 μM) | – | − (“−” indicates less than 50% inhibition at 10 μM) | – | + (“+” indicates greater than 50% inhibition at 10 μM) | + (“+” indicates greater than 50% inhibition at 10 μM) | – | – | + (“+” indicates greater than 50% inhibition at 10 μM) | − (“−” indicates less than 50% inhibition at 10 μM)
